Laboratory results from patent US20140093884A1, “Process for Identifying Novel Anti-Inflammatory Molecules with Reduced Direct Transrepression of Genes Induced by Glucocorticoids” (UNIVERSITE DE STRASBOURG, priority 2011, published 2014).

How the values were obtained:
TSLP = TSLP transcript levels in mouse ear epidermis after topical treatment (Q-RT-PCR); assay type: in vivo
Description: Mice. […] Real time PCR. Total RNA was reverse transcribed using hexamers, followed by Q-PCR, as reported (Li et al., 2005). The GC agonist fluocinolone acetonide (FA) was applied to ears of mice concomitantly treated with the “low-calcemic” Vitamin D3 (VitD3) analog MC903 (Calcipotriol; hereafter called MC) to trigger TSLP expression (Li et al., 2006). […] As expected, the expression of the GC-inducible GPX3 (glutathione peroxidase 3) gene which harbours a (+)GRE (Tuckermann et al., 1999) was enhanced by FA (FIG. 10) and inhibited by RU co-treatment, while FA or RU had no effect on MC-dependent expression of the CYP24A1 gene (a VitD3 target) (FIG. 10). […] Although the basal TSLP level was similar in vehicle-treated WT and GR^ep−/− mice, FA blocked MC-induced TSLP expression in WT, but not in GR^ep−/− mice (not shown).

[1] = test system: IR nGRE genes CCND1, PRKCB, FSTL1; settings: mouse, in vivo
Description: (§1) Gene transcripts in epidermis of WT and GRdim mutant mice topically treated as indicated for 6 hours are analysed by Q-RT-PCR.
(§2) Note that epidermis was treated as indicated with TPA, to activate NFκB and AP1 factors.

[2] = test system: IR nGRE (pGL3(VDRE) IR1 nGRE luciferase reporter); test: Luciferase reporter assay in A549 cells, pGL3(VDRE) IR nGRE plasmids; assay type: cell-based, human; settings: pGL3(VDRE) IR1 nGRE
Description: Luciferase reporter assay. A549 cells seeded on 24-well tissue culture plates overnight at 70% confluency were transfected with 100 ng pCMV β galactosidase, 200 ng pGL3 reporter plasmids and wherever indicated, with 600 ng pSG5 hVDR plasmid (Green et al., 1988) into each well and maintained in medium containing charcoal treated FCS. 24 hours post-transfection, medium was changed and different compounds were added to it for 6 hours. […] Luciferase assay was carried out as instructed (Promega). Normalized values are reported as the mean±SEM; each value originates from at least three individual transfections with assays performed in duplicate.
To investigate whether additional DNA elements could be required to generate a repressing activity, the TSLP IR1 nGRE was inserted upstream of an enhancerless SV40 early promoter located 5′ to the luciferase coding sequence of pGL3 vector, A VDRE separated from the IR1 nGRE by a 314 bp-long DNA segment devoid of any known transregulator binding site (not shown) was inserted to generate a luciferase-expressing reporter plasmid (pGL3(VDRE) IR1 nGRE, FIG. 4), which was transfected into A549 cells, followed by addition of VitD3 and/or FA.
To investigate whether the 1 bp spacer between the inverted repeated motifs of TSLP IR1 nGRE was critical for its repressing function, pGL3-based luciferase plasmids containing the VDRE and TSLP nGRE motifs spaced by 0 to 5 bases (IR0 to IR5 nGREs) were transfected into A549 cells.

[3] = test system: IR0 and IR2 nGRE containing genes; test: Dex with RU co-administration, expression of IR0 and IR2 genes in epidermis, intestinal epithelium and liver; assay type: in vivo, mouse; settings: Dex-treated mice, in all cases
Description: Mice. For topical treatment, 1 nmole (nm)/cm^2 MC903, at-RA or TPA; 6 nm/cm^2 FA, Dex or RU24858; and 90 nm/cm^2 RU486 were used. For systemic use, 100 ng/kg body weight active Vit D3, 8 mg/kg Dex and 64 mg/kg RU486 was intraperitoneally injected. GRdim mice were from the European Mouse Mutant Archives (EM:02123). Breeding, maintenance and experimental manipulation of mice were approved by the Animal Care and Use Committee of the IGBMC.

[4] = test system: CYP24A1 gene (a VitD3 target); test: CYP24A1 transcript levels in mouse ear epidermis after topical treatment (Q-RT-PCR); assay type: in vivo; settings: mouse ears, FIG. 10
Description: (§3) Mice. […] Real time PCR. Total RNA was reverse transcribed using hexamers, followed by Q-PCR, as reported (Li et al., 2005). The GC agonist fluocinolone acetonide (FA) was applied to ears of mice concomitantly treated with the “low-calcemic” Vitamin D3 (VitD3) analog MC903 (Calcipotriol; hereafter called MC) to trigger TSLP expression (Li et al., 2006). […] As expected, the expression of the GC-inducible GPX3 (glutathione peroxidase 3) gene which harbours a (+)GRE (Tuckermann et al., 1999) was enhanced by FA (FIG. 10) and inhibited by RU co-treatment, while FA or RU had no effect on MC-dependent expression of the CYP24A1 gene (a VitD3 target) (FIG. 10).

[5] = test system: Cox2 gene (NFκB and AP1 binding sites); test: Q-RT-PCR of Cox2 in epidermis of WT and GRdim mice topically treated 6 hours (TPA-activated); settings: mouse, in vivo
Description: as §1, §2

[6] = test system: GPX3 (glutathione peroxidase 3) gene, (+)GRE; test: GPX3 transcript levels in mouse ear epidermis after topical treatment (Q-RT-PCR); assay type: in vivo; settings: WT mice, ears, topical, FIG. 10
Description: as §3

GR [7] = biological target: T1, GR (Homo sapiens, UniProt P04150); settings: cited from earlier work
T1 sequence (P04150 1-777): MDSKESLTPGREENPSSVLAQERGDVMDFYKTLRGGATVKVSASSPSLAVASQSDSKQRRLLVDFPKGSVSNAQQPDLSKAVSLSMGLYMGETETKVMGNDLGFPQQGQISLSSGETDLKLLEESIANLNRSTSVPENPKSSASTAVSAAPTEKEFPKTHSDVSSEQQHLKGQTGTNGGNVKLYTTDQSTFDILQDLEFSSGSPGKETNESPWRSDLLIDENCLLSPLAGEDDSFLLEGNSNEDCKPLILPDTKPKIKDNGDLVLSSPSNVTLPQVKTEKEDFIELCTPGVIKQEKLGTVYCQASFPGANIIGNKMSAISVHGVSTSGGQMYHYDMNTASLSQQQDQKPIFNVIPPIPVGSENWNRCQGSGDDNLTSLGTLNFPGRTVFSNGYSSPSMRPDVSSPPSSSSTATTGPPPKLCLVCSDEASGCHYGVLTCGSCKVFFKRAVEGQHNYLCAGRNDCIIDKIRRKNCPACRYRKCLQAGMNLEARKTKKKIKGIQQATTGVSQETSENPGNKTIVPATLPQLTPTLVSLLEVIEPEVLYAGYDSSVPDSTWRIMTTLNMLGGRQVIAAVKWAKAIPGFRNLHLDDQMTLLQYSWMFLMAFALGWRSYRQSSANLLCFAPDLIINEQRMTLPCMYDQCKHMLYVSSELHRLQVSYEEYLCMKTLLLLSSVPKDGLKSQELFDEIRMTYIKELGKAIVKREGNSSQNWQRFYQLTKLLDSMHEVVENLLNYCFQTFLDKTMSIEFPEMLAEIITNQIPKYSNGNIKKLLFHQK

[8] = biological target: T2, GR complexes on (+)GRE and nGRE regions (Mus musculus, UniProt P06537); test: ChIP in vivo after RU24858 treatment
T2 construct: from tissue; host or cells: mouse epidermis, pancreas, liver
Description: (§4) The “activity profile” of RU24858 was also investigated in vivo.

[9] = test system: NFκB-driven transcription (PGL4-NFκB vector); test: Luciferase assay in IL-1β-activated A549 cells transfected with PGL4-NFκB; assay type: cell-based, human; settings: 6 hours, FIG. 15A left panel
Description: (§5) A549 cells transfected with PGL4-NFκB (NFκBluc plasmid) of SEQ ID NO:56 and PGL4-AP1 (AP1luc plasmid) of SEQ ID NO:55 were treated as indicated for 6 hours, followed by luciferase assay. “BAY”=NFκB-specific inhibitor BAY 11-7082 and “JNK inhibit”=JNK inhibitor II). • B) Q-RT-PCR of gene transcripts from WT dorsal epidermis topically-treated with Dexamethasone or RU24858 for 18 hours (left panel) and from liver of WT mice IP-injected with Dexamethasone or RU24858 for 18 hours (right panel).
(§6) Luciferase reporter assay. A549 cells seeded on 24-well tissue culture plates overnight at 70% confluency were transfected with 100 ng pCMV β galactosidase, 200 ng pGL3 reporter plasmids and wherever indicated, with 600 ng pSG5 hVDR plasmid (Green et al., 1988) into each well and maintained in medium containing charcoal treated FCS. 24 hours post-transfection, medium was changed and different compounds were added to it for 6 hours. Final concentrations of the compounds are: FA, 500 nM; Dex or RU24858, 300 nM or 500 nM (wherever 300 nM Dex or RU was used, it is indicated in the figure, in all other cases, 500 nM concentration was used); active vitamin D3, 1 μM; IL-1β, 5 ng/ml; BAY 11-7082, 5 μM, JNK inhibitor II, 25 μM. Luciferase assay was carried out as instructed (Promega). […]

GR [10] = biological target: T1, GR; settings: cited from earlier work; remark: listed apart in the source
[11] = biological target: T3, repressing complex tethered to NFκB (Homo sapiens, UniProt P04150); test: ChIP of repressing complex tethered to NFκB on PGL4-NFκB vector in A549 cells; assay type: cell-based
T3 construct: GR-expressing cells are in vitro cultured cells, preferably human lung epithelial carcinoma cells A549; endogenous in cells; host or cells: A549 (CCL-185, ATCC)
T3 sequence (P04150 1-777): T1 sequence (P04150 1-777)
Description: For ChIP assays to test GR and cofactor binding to the nGRE, +GRE or NFκB region of various luciferase reporter plasmids, ˜60% confluent A549 cells in 100 mm TC dish were transfected with 2 μg of respective plasmids using fugene 6 reagent (Roche) and maintained in charcoal treated FCS containing medium. 44 hours post-transfection, 500 nM FA or Dex or RU24858 and/or 5 μM RU486, 5 ng/ml IL-1β (final conc.) was added to the medium for 2 hours, followed by formaldehyde treatment and processing as described above.

[12] = test system: IR0, IR1 and IR2 nGRE-containing genes; test: Q-RT-PCR of IR nGRE-containing genes in WT mouse epidermis or liver after Dexamethasone or RU24858 for 18 hours; settings: in vivo, FIG. 15B, compared with Dex
Description: as §5
(§7) Real time PCR. Total RNA was reverse transcribed using hexamers, followed by Q-PCR, as reported (Li et al., 2005).
as §4

[13] = test system: (+)GRE (PGL3(VDRE) (+)GRE luciferase reporter); test: Luciferase reporter assay in A549 cells, PGL3(VDRE) (+)GRE vector; assay type: cell-based, human; settings: compared with Dex
Description: as §6, with “(Promega). Normalized values are reported as the mean±SEM; each value originates from at least three individual transfections with assays performed in duplicate.” for “(Promega).”

[14] = test system: (+)GRE-containing GPX3 gene; test: GPX3 expression in mouse epidermis after topical RU24858; assay type: in vivo
Description: as §7, §4

[15] = test system: genes of which the skin expression was enhanced by topical TPA treatment; test: Down-regulation of TPA-enhanced genes in mouse skin (NFκB-mediated tethered transrepression); assay type: in vivo; settings: compared with Dex
Description: as §4

[16] = test system: (+)GRE-containing GGT1 and ERP27 genes; test: GGT1 and ERP27 expression in mouse liver after RU24858; assay type: in vivo
Description: as §7, §4

[17] = test system: AP1-driven transcription (PGL4-AP1 vector); test: Luciferase assay in IL-1β-activated A549 cells transfected with PGL4-AP1; assay type: cell-based, human; settings: 6 hours, FIG. 15A right panel
Description: as §5, §6

## C=C1/C(=C\C=C2/CCC[C@]3(C)[C@@H]([C@H](C)/C=C/[C@@H](O)C4CC4)CC[C@@H]23)C[C@@H](O)C[C@@H]1O [MC903, Calcipotriol]
TSLP; GRep-/- vs WT mice
  MC-induced TSLP expression in GRep-/- compared with WT mice: more efficient
TSLP; WT mice, ears, topical MC903
  TSLP RNA level: increase

## CC#C[C@]1(O)CC[C@H]2[C@@H]3CCC4=CC(=O)CCC4=C3[C@@H](c3ccc(N(C)C)cc3)C[C@@]21C [RU486, mifepristone]
[1]
  effect of Dex treatment on IR nGRE-mediated transrepression upon excess RU co-treatment: reverted
[2]
  FA-induced decrease of luciferase expression (IR1 nGRE) upon RU addition: prevented
[3]
  GC-induced repression of IR0 and IR2 genes upon co-administration of RU: relieved
[4]
  effect on MC-dependent expression of the CYP24A1 gene: no effect
[5]
  effect of RU on NFκB/AP1-mediated tethered transrepression: little effect
TSLP; WT mice, ears, topical
  FA block of MC-induced TSLP RNA upon RU co-treatment: restored
  FA-induced inhibition of basal TSLP RNA level upon co-application of RU486: relieved
[6]
  FA-enhanced GPX3 expression upon RU co-treatment: inhibited

## C[C@@H]1C[C@H]2[C@@H]3CCC4=CC(=O)C=C[C@]4(C)[C@@]3(F)[C@@H](O)C[C@]2(C)[C@H]1C(=O)CC#N [RU24858]
GR [7]
  dissociated profile (tethered indirect transrepression vs direct transactivation) in vitro: exhibit the expected dissociated profile in vitro
[8]
  GR-SMRT/NCoR repressing complexes on nGRE regions: recruitment of GR-SMRT/NCoR repressing complexes
  assembly of an activating complex on (+)GRE of GPX3, GGT1 and ERP27: did not induce assembly of an activating complex
[9]
  repression of IL1β-induced activation of transcription by NFκB: almost as efficient as Dex
GR [10]
  dissociation upon administration in vivo: failed to confirm this dissociation
[11]
  recruiting a repressing complex tethered to NFκB bound to its cognate element: as efficient as Dex
[12]
  transrepression of IR0 nGRE gene CCND1: as efficient as Dex
  transrepression of IR1 nGRE gene CYP26A1: as efficient as Dex
  transrepression of IR1 nGRE gene K14: as efficient as Dex
  transrepression of IR1 nGRE gene PRKCB: as efficient as Dex
  transrepression of IR1 nGRE gene TSLP: as efficient as Dex
  transrepression of IR2 nGRE gene DPAGT1: as efficient as Dex
[13]
  inducing transactivation of (+)GRE pGL3 luciferase plasmid: much less efficient than Dex
[14]
  GC-dependent expression of the (+)GRE-containing GPX3 gene: did not activate
[15]
  down-regulating, through NFκB-mediated tethered transrepression, genes enhanced by topical TPA: as efficient as Dex
[16]
  GC-dependent expression of the ERP27 gene: did not activate
  GC-dependent expression of the GGT1 gene: did not activate
[17]
  repression of IL1β-induced activation of transcription by AP1: almost as efficient as Dex
